The subject of experiment [1] is blood platelets (platelet rich, citrated, human blood plasma). Nature of the experiment: inhibition of platelet aggregation in platelet rich, citrated human blood plasma (aggregometer), agonist ADP or collagen. The format is cell-based. The conditions noted are these: for IC50: agonist ADP (10 μg), read-out: ID50 (the source's name).
The test system is the same in experiment [2]. Described as above. It is filed as cell-based. The conditions noted are these: for IC50: agonist COLLAGEN (2 μg), read-out: ID50 (the source's name). The text has this:
(§1) Various substances are known to cause blood platelets to aggregate which in turn can result in blood clots in the blood circulatory system of living animals. Certain other compounds are known to prevent blood platelet aggregation and accordingly are known as antithrombotic agents, while other compounds prevent clotting of aggregated platelets and are called anticoagulants. Both are used in the treatment of phlebitis, stroke, coronary thrombosis, and arteriosclerosis. In a typical test to determine antithrombotic activity, the suspected antithrombotic substance is mixed with a suspension of blood platelets, incubated for a few minutes, and then the suspension is treated with a known amount of a known agonist (agents inducing aggregation). The effectiveness of the suspected antithrombotic is compared to a control which has been treated with the agonist but which has not been treated with the antithrombotic and a quantitative measure of effectiveness is determined by ascertaining the concentration of suspected antithromobotic necessary to reduce by 50% the extent of platelet aggregation compared to the control. This measurement is termed the ID50 of the antithrombotic. Typical agonists include collagen and ADP (adenosine diphosphate).
Platelet rich, citrated, human blood plasma (250,000 platelets/μL) was prepared and divided into 0.45 ml aliquots for use in determining ID50 levels of the subject compounds. The aliquots were treated with various quantities of the compounds of the instant invention and thereafter were preincubated by maintaining in an aggregometer curvette for two (2) minutes at 37° C. with stirring (950 RPM). Control aliquots free of antithrombotic component, were maintained and subjected to each of the processing steps. Each aliquot was then treated with an agonist in this instance being an appropriate amount of ADP (10 μmole) or collagen (2 μg). Aggregation in each aliquot was monitored for a period of 3-5 minutes and percent aggregation was quantified by a dual channel aggregometer which ascertained percent aggregation by comparision against a control of light transmittance through the sample.

The subject of a further experiment is S. Aureus bacteria. Kind of experiment: antibacterial activity against S. Aureus. It is filed as cell-based.
The test system of the next experiment is blood platelets. Kind of experiment: antithrombotic activity in combination with other known antithrombotics.
Excerpt: as §1

Where two headings read alike, the source gives them in different places.

As to `C=CCS(=O)(=O)C/C=C/SSC/C=C\CCC` [Aliquot 13], the IC50 in experiment [1] (Homo sapiens, Platelet) is 280 µM.
Consider “(E,Z)-4,5,9-trithiadodeca-1,6,11-triene 9,9dioxide [Example 2]”, for which the IC50 is 214 µM in experiment [2] and 209 µM in experiment [1].
For the compound `C=CCS(=O)(=O)C/C=C/SS(=O)(=O)CC=C` [Aliquot 8, (E) 4,5,9-trithiadodeca-1,6,11-triene 4,4,9,9-tetraoxide], the “effect on platelet aggregation” value in experiment [1] (at levels of 40 μg/ml of ADP) is reported as “appears to act as an agonist”.
`C=CC[S+]([O-])CC=CSS(=O)(=O)CC=C` (stereo not shown) [Example 5, (E,Z)-4,5,9-trithiadodeca-1,6,11-triene 4,4,9-trioxide]: the “growth of S. Aureus bacteria” value with S. Aureus bacteria (0.25 m. molar concentration) was “growth of the bacteria was inhibited”. Moreover, the “killing of S. Aureus bacteria” value in the experiment on S. Aureus bacteria (1.0 m. molar concentration) was “killing of the bacteria”.
On to `CCCCC[C@H](O)/C=C/[C@@H]1[C@H]2C/C(=C/CCCC(=O)O)O[C@H]2C[C@H]1O` [prostacyclin], for which, in the experiment with blood platelets, the “antithrombotic activity when combined with various compounds of the invention” value is “particularly enhanced antithrombotic activity”.
As for `C=CCSS/C=C/C[S+](C)[O-]` (stereo not shown) [Aliquot 4], the IC50 in experiment [2] (Homo sapiens, Platelet) was 374 µM; in experiment [1] (Homo sapiens, Platelet) it was above 400 µM.
In the case of `COc1ccc2c(c1)c(CC(=O)O)c(C)n2C(=O)c1ccc(Cl)cc1` [Indomethacin, indomethacin], the “antithrombotic activity when combined with various compounds of the invention” value in the experiment on blood platelets is “particularly enhanced antithrombotic activity”.
As for `C=CCS(=O)(=O)C/C=C/SSC/C=C/CCC` [Aliquot 14], the IC50 in experiment [1] (Homo sapiens, Platelet) was above 400 µM.
As for `C=CCSSCCC[S+]([O-])CC=C` (stereo not shown) [Aliquot 3], the IC50 is above 400 µM in experiment [2] (Homo sapiens, Platelet) and above 400 µM in experiment [1] (Homo sapiens, Platelet).
For the compound `C=CCS(=O)(=O)C/C=C/SSCCC` [Aliquot 10], in experiment [1] (Homo sapiens, Platelet), the IC50 stood at 210 µM.
With “(E)-4,5,9-trithiadodeca-6,11-diene 9,9 dioxide [Aliquot 10]”, in experiment [1], the IC50 is 182 µM.
In the case of `C=CCS(=O)(=O)C/C=C/SS(=O)(=O)CC=C` [Aliquot 8], in experiment [2] (printed across the ADP (10 μg) and COLLAGEN (2 μg) columns), the “ID50 columns: result in words” value is listed as “Causes Aggregation”.
With `C=CCS(=O)(=O)C/C=C/SSCc1ccccc1` [Aliquot 12], in experiment [1] (Homo sapiens, Platelet), the IC50 was determined as 204 µM.
Turning to `CSS/C=C/C[S+](C)[O-]` (stereo not shown) [Aliquot 5, (E) 2,3,7-trithiaocta-4-ene 7-oxide], the IC50 was 332 µM in experiment [2] (Homo sapiens, Platelet) and above 400 µM in experiment [1] (Homo sapiens, Platelet).
With `C=CCS(=O)(=O)C/C=C/SSC/C=C/C` [Aliquot 11], the IC50 in experiment [1] (Homo sapiens, Platelet) came to 208 µM.
Take `C=CCSS/C=C/C[S+]([O-])CCCC(=O)OCC` (stereo not shown) [Aliquot 9]: the IC50 turned out to be 388 µM in experiment [2] (Homo sapiens, Platelet) and 388 µM in experiment [1] (Homo sapiens, Platelet).

Values taken from patent US4643994A, “Novel organic trithio oxides and method for the preparation thereof” (The Research Foundation of State University of New York, priority 1984, dated 1987).
